In US20060292553A1, “Method for study of the genetic and functional variability of HIV and kit for using it” (Bioalliance Pharma, a corporation of France, priority 2004, published 2006):

Assays:
[1] = test system: HIV-1 virus of the patient (protease and inverse transcriptase genes); assay: ViroSeq genotyping, evidence of resistance from the amplicon of patient plasma; details: M184V, T215Y, L63P
Excerpt: (§1) The procedure to generate the first specific amplicon is as follows: • 1) Viral RNA contained in a biological sample is extracted. The biological sample may be derived from a sample from the patient. It may be a blood or serum sample, but may also come from a biological fluid or a biopsy or any other tissue preparation. The biological sample may also come from a viral culture. In a general manner, a biological sample corresponds to all types of samples containing one or several HIV-1 variants. The term “HIV-1 virus” in this Example is used to mean any viral strain belonging to the sub-types B and non-B. • 2) The RNA obtained in (1) is retrotranscribed and amplified with one of the pairs of specific primers in Table 1 below to obtain an amplicon characterized by: […]
(§2) Tables 2 and 3 below show two examples of samples of plasma in patients 1 and 2, respectively, for which the amplicons generated by the method above have made it possible to implement the genotyping according to the Trugene and Viroseq techniques and phenotyping according to the Phenoscript technique.
The RNA is extracted using plasmas from patients according to a known extraction technique based on the affinity of RNA with respect to silica columns, the viral RNA is retrotranscribed and amplified using PCR with primers specific to the pol gene making possible amplification of a sequence of nucleic acids of 1800 pb comprising, for the protease, codons 1 to 99 and comprising, for the inverse transcriptase, codons 1 to 335. The DNA thus obtained is then sequenced with seven different primers according to the Big Dye™ Terminator technology, a sequencing technique using dye terminators. The sequence reaction is initiated by each specific non-labeled primer, then interrupted by each of the labeled nucleotides. All of the fragments synthesized are then separated on electrophoresis gel. The color of the fluorochrome will then be registered using an automatic sequencer (ABI Prism 377 DNA sequencer), specifically indicating the fragments ending with each of the four labeled nucleotides. The sequences, once reconstituted, are compared to the sequence of a reference virus using an alignment software.
(§3) The measurement of genetic variability is carried out using a specific sequence of nucleic acids amplified according to aspects of the method, then analyzed according to known sequencing techniques (Trugene, ViroSeq). Mutations in the genes of the protease and of the inverse transcriptase identified by these tests are interpreted according to algorithms that are updated regularly. A first score of 0 to 2 is attributed to each of the three levels of resistance determined by the interpretation. Table 11 below summarizes the interpretations given by the Trugene and ViroSeq tests as a function of the mutations identified and of the anti-retroviruses (ARV) used and assigns a genotypical score corresponding to the magnitude of the resistance.

[2] = test system: HIV-1 virus of the patient (recombinant virus); assay: Phenoscript phenotyping, recombinant virus of the patient in the presence of drugs; type: cell-based
Excerpt: The principle of the phenotypical tests for resistance is based on the measurement in vitro of the growth of a virus in the patient in the presence of drugs.
Viral RNA derived from the plasma is extracted, then the regions coding for inverse transcriptase and/or protease are amplified using PCR in phenotypical tests. Amplicons are recombined in vitro in a defective vector to form a viral particle. This viral particle is placed in a culture in the presence of increasing concentrations of drugs. The results are expressed in a “fold change” ratio of IC 50 (or IC90) with respect to a control virus which corresponds to the concentration of the drug that inhibits 50% (or 90%) of the viral replication in comparison to the reference wild type virus. The resistance level is defined as a function of thresholds of sensitivity (cut off).
as §2
The principle of the tests of phenotypical resistance is based on the measurement in vitro of the growth of a virus in the patient in the presence of drug(s)/active agent(s), compared to a reference virus (resistance index). The level of resistance is defined as a function of thresholds of sensitivity (cut off). A second score of 0 to 2 is attributed to each of the three levels of resistance determined by the interpretation. Table 12 summarizes the interpretations given by the main phenotypical tests, PhenoSense and Phenoscript, as a function of their thresholds of sensitivity and assigns a phenotypical score corresponding to the magnitude of resistance.

[3] = test system: HIV-1 virus of the patient (protease and inverse transcriptase genes); assay: Trugene genotyping, interpretation of resistances from the amplicon of patient plasma; details: M184V, T215Y, L63P
Excerpt: as §1, §2
The Trugene HIV-1 genotyping kit is used to determine the genotype of the virus of sub-types B and non-B. The RNA is extracted using plasma from patients, according to known techniques, the viral RNA is retrotranscribed and amplified using PCR with primers specific for the pol gene making possible amplification of a sequence of nucleic acids of 1300 pb comprising, for the protease, codons 1 to 99 and comprising, for the inverse transcriptase, codons 1 to 247. The product of RT-PCR thus obtained is used in each of the 16 sequencing reactions by using the principle of CLIP™ reaction, sequencing technique using labeled primers (dye primers). Four pairs of different primers are used for this sequencing method, two pairs for the sequencing of the protease and two other pairs for the sequencing of the inverse transcriptase. Each sequence reaction is initiated by a specific dye primer (CLIP™), then interrupted by the corresponding labeled nucleotide. All of the fragments synthesized are then separated on electrophoresis gel and analyzed by an automatic sequencer specifically indicating the fragments ending with each of the four labeled nucleotides. The sequences, once reconstituted, are compared to the sequence of a reference virus using an alignment software.
as §3

[4] = Patient 1 plasma sample, mutations D67N, K70R, K219E, K103N, V108I, P225H
[5] = Patient 2 plasma sample, mutations M41L, L210W, M36L

| SMILES | Viroseq Evidence of resistance [1, 4] | Viroseq Evidence of resistance [1, 5] | Phenoscript Contribution to the therapeutic response ([2]; Patient 1 plasma sample) | Phenoscript Contribution to the therapeutic response ([2]; Patient 2 plasma sample) | Trugene Interpretation of resistances [3, 4] | Trugene Interpretation of resistances [3, 5] |
| --- | --- | --- | --- | --- | --- | --- |
| Nc1ccn([C@@H]2CS[C@H](CO)O2)c(=O)n1 [3TC] | High | High | Improbable | Improbable | Resistance | Resistance |
| Nc1nc(NC2CC2)c2ncn([C@H]3C=C[C@@H](CO)C3)c2n1 [ABC] | Possible | Possible | Possible | Possible | No resistance | Resistance |
| CC(C)CN(C[C@@H](O)[C@H](Cc1ccccc1)NC(=O)O[C@H]1CCOC1)S(=O)(=O)c1ccc(N)cc1 [APV] | Zero | Zero | Probable | Probable | No resistance | No resistance |
| Cc1cn([C@H]2C[C@H](N=[N+]=[N-])[C@@H](CO)O2)c(=O)[nH]c1=O [AZT] | High | High | Improbable | Improbable | Resistance | Resistance |
| CC(C)Nc1cccnc1N1CCN(C(=O)c2cc3cc(NS(C)(=O)=O)ccc3[nH]2)CC1 [DLV] | High | Zero | – | – | Resistance | No resistance |
| O=C1Nc2ccc(Cl)cc2[C@@](C#CC2CC2)(C(F)(F)F)O1 [EFV] | High | Zero | Improbable | Probable | Resistance | No resistance |
| CC(C)(C)NC(=O)[C@@H]1CN(Cc2cccnc2)CCN1C[C@@H](O)C[C@@H](Cc1ccccc1)C(=O)N[C@H]1c2ccccc2C[C@H]1O [IDV] | Zero | Zero | Probable | Probable | No resistance | No resistance |
| Cc1cccc(C)c1OCC(=O)N[C@@H](Cc1ccccc1)[C@@H](O)C[C@H](Cc1ccccc1)NC(=O)[C@H](C(C)C)N1CCCNC1=O [LPV] | Zero | Zero | Probable | Probable | No resistance | No resistance |
| Cc1c(O)cccc1C(=O)N[C@@H](CSc1ccccc1)[C@H](O)CN1C[C@H]2CCCC[C@H]2C[C@H]1C(=O)NC(C)(C)C [NFV] | Zero | Possible | Probable | Probable | No resistance | No resistance |
| Cc1ccnc2c1NC(=O)c1cccnc1N2C1CC1 [NVP] | High | Zero | Improbable | Probable | Resistance | No resistance |
| CC(C)c1nc(CN(C)C(=O)N[C@H](C(=O)N[C@@H](Cc2ccccc2)C[C@H](O)[C@H](Cc2ccccc2)NC(=O)OCc2cncs2)C(C)C)cs1 [RTV] | Zero | Zero | – | – | No resistance | No resistance |
| CC(C)(C)NC(=O)[C@@H]1C[C@@H]2CCCC[C@@H]2CN1C[C@@H](O)[C@H](Cc1ccccc1)NC(=O)[C@H](CC(N)=O)NC(=O)c1ccc2ccccc2n1 [SQV] | Zero | Zero | Probable | Probable | No resistance | No resistance |
| CC(C)OC(=O)OCOP(=O)(CO[C@H](C)Cn1cnc2c(N)ncnc21)OCOC(=O)OC(C)C.O=C(O)/C=C/C(=O)O [TDF] | – | – | – | – | No resistance | Resistance |
| Cc1cn([C@H]2C=C[C@@H](CO)O2)c(=O)[nH]c1=O [d4T] | High | Possible | Probable | Probable | Resistance | Resistance |
| Nc1ccn([C@H]2CC[C@@H](CO)O2)c(=O)n1 [ddC] | High | High | – | – | – | – |
| O=c1[nH]cnc2c1ncn2[C@H]1CC[C@@H](CO)O1 [ddI] | Possible | Possible | Probable | Possible | Resistance | Resistance |
